Values of other authors in patent publication US6468944B1, “Method of preparing glyphosate herbicide formulations” (priority 1991, dated 2002).

**Q.** For `O=C(O)CNCP(=O)(O)O` [Glyphosate, N-phosphonomethylglycine], which solubility in water is on record?
**A.** relatively insoluble in water
